{"source": "patent US12097177B2", "about": "“Therapeutic method for cat with chronic kidney disease” (Toray Industries, Inc., priority 2021, dated 2024)", "key": {"[1]": {"test_system": "cats with CKD", "assay": "Retrospective observation study: period before kidney death (serum creatinine higher than 10.0 mg/dL), BPS therapy vs No BPS therapy", "assay_type": "in vivo, cat", "conditions": "for 3-year kidney survival rate: cats with CKD; for average period before kidney death: Kaplan-Meier", "procedure": "Based on the drug prescription records, cats were divided into two groups: a BPS therapy group consisting of 73 cats; and a BPS therapy-free group consisting of 126 cats.\nIn Example 3, the periods before kidney death were compared and analyzed retrospectively. The timing of kidney death was determined with reference to the guidelines on acute kidney insufficiency from the International Renal Interest Society. On the basis of the statement such that “a patient may die within 5 to 10 days despite appropriate conservative therapy without kidney replacement therapy if serum creatinine is higher than 10.0 mg/dL,” specifically, kidney death was determined when serum creatinine of higher than 10.0 mg/dL was recorded in the serum creatinine test. By designating kidney death as the outcome, the start date of treatment as the point of origin for the cats in the BPS therapy group, and the start date of observation as the point of origin for the cats in the No BPS therapy group, the periods (months) before the outcome was observed were recorded. In analysis, the 3-year kidney survival rates (%) of the BPS therapy group and of the No BPS therapy group, the standard errors thereof, the 95% confidence intervals, and the comparison of the 3-year kidney survival rates (%) between the groups were calculated. […] Differences in the kidney survival rates were assessed by the log rank test, the Cochran-Mantel-Haenszel test, by setting significant level at a two-tailed P-value of <0.05.\nBased on the drug prescription records, cats were divided into two groups: a BPS therapy group consisting of 37 cats; and a BPS therapy-free group consisting of 332 cats.\nIn Comparative Example 2, the periods before kidney death were compared and analyzed retrospectively. The timing of kidney death was determined with reference to the guidelines on acute kidney insufficiency from the International Renal Interest Society. On the basis of the statement such that “a patient may die within 5 to 10 days despite appropriate conservative therapy without kidney replacement therapy if serum creatinine is higher than 10.0 mg/dL,” specifically, kidney death was determined when serum creatinine of higher than 10.0 mg/dL was recorded in the serum creatinine test. By designating kidney death as the outcome, the start date of treatment as the point of origin for the cats in the BPS therapy group, and the start date of observation as the point of origin for the cats in the No BPS therapy group, the periods (months) before the outcome was observed were recorded. In analysis, the 3-year kidney survival rates (%) of the BPS therapy group and of the No BPS therapy group, the standard errors thereof, the 95% confidence intervals, and the comparison of the 3-year kidney survival rates (%) between the groups were calculated. […] Differences in the kidney survival rates were assessed by the log rank test, the Cochran-Mantel-Haenszel test, by setting significant level at a two-tailed P-value of <0.05."}, "[2]": {"test_system": "cats with CKD", "assay": "Retrospective observation study: survival period / overall survival rate (all-cause death), BPS therapy vs No BPS therapy", "assay_type": "in vivo, cat", "conditions": "for average survival period / median survival period: Kaplan-Meier", "procedure": "Based on the drug prescription records, cats were divided into two groups: a BPS therapy group consisting of 17 cats; and a BPS therapy-free group consisting of 67 cats, and baseline characteristics and the survival periods were compared and analyzed retrospectively. To the cats in the BPS therapy group, BPS drugs for veterinary use, RAPROS (trademark) (Toray Industries, Inc.), were administered while adjusting the amount of BPS to 20.0 to 49.1 μg/kg body weight/day and the median to 31.4 μg/kg body weight/day twice daily during or after morning and evening feeding occasions. By designating all-cause death as the outcome, the start date of treatment as the point of origin for the cats in the BPS therapy group, and the start date of observation as the point of origin for the cats in the No BPS therapy group based on the death records, the periods (months) before the outcome was observed were recorded. In analysis, the 2-year overall survival rates (%) of the BPS therapy group and of the No BPS therapy group, the standard errors thereof, the 95% confidence intervals, and the comparison of the 2-year overall survival rates (%) between the groups were calculated. […] Differences in the overall survival rates were assessed by the log rank test, the Cochran-Mantel-Haenszel test, by setting significant level at a two-tailed P-value of <0.05. […]\nFrom among the cats with CKD, the data sets of […] having body weight of less than 3.5 kg were extracted, and the cats were divided into two groups: a BPS therapy group consisting of 19 cats; and a BPS therapy-free group consisting of 40 cats. In the same manner as described above, the 3-year overall survival rates (%) and the average survival periods were compared between the groups."}, "[3]": {"test_system": "cats with naturally occurring CKD", "conditions": "cited from earlier work"}, "[4]": {"test_system": "cats with CKD", "conditions": "55 μg twice daily for at least 5 months, cited from earlier work"}, "[5]": {"test_system": "cats with CKD", "conditions": "20 to 55 μg twice daily, 2 months to 3 years and 3 months; cited from earlier work"}, "[6]": {"test_system": "kidney of rat progressive glomerulonephritis", "conditions": "in vivo; cited from earlier work"}, "[7]": {"conditions": "stage 2 before initiation of administration"}, "[8]": {"conditions": "cats with CKD having body weight of less than 3.5 kg"}, "[9]": {"conditions": "stage 3 and body weight of less than 4.2 kg"}, "[10]": {"conditions": "55 μg or 6 to 26.4 μg/kg, preferably twice daily for 30 days or longer (WO '949)"}, "[11]": {"conditions": "first study, 26 cats (BPS group 11)"}, "[12]": {"conditions": "later study, 29 cats (BPS group 15)"}}, "note": "Like-named read-outs stand apart in the source and are kept apart here.", "data": [{"smiles": "CC#CCC(C)[C@H](O)/C=C/[C@@H]1[C@H]2c3cccc(CCCC(=O)[O-])c3O[C@H]2C[C@H]1O.[Na+]", "note": "(stereo partly drawn) [BPS, Beraprost sodium]", "values": [{"measurement": "3-year kidney survival rate", "setting": "[1]; serum creatinine 1.6 to 2.8 mg/dL (stage 2)", "result": 90.0, "unit": "%"}, {"measurement": "3-year kidney survival rate", "setting": "[1]; serum creatinine 2.9 to 5.0 mg/dL (stage 3) or higher than 5.0 mg/dL (stage 4), 10.0 mg/dL or lower", "result": 77.1, "unit": "%"}, {"measurement": "3-year kidney survival rate of BPS therapy group relative to No BPS therapy group", "setting": "[1]; stage 2", "result": 0.95, "unit": "times"}, {"measurement": "average kidney survival period of BPS therapy group relative to No BPS therapy group", "setting": "[1]; stage 2", "result": 0.97, "unit": "times"}, {"measurement": "average period before kidney death", "setting": "[1]; stage 2", "result": 40.8, "unit": "months"}, {"measurement": "effect on kidney death", "setting": "[1]; [7]", "result": "no effects of BPS administration to inhibit kidney death were observed"}, {"measurement": "3-year kidney survival rate of BPS therapy group relative to No BPS therapy group", "setting": "[1]; stage 3 or 4", "result": 1.20, "unit": "times"}, {"measurement": "average kidney survival period of BPS therapy group relative to No BPS therapy group", "setting": "[1]; stage 3 or 4", "result": 1.48, "unit": "times"}, {"measurement": "average period before kidney death", "setting": "[1]; stage 3 or 4", "result": 39.2, "unit": "months"}, {"measurement": "effect on kidney death", "setting": "[1]; stage 3 or 4 before initiation of administration", "result": "effects of BPS administration to inhibit kidney death were observed"}, {"measurement": "3-year overall survival rate of BPS therapy group relative to No BPS therapy group", "setting": "[2]; [8]", "result": 2.90, "unit": "times"}, {"measurement": "average survival period of BPS therapy group relative to No BPS therapy group", "setting": "[2]; [8]", "result": 1.66, "unit": "times"}, {"measurement": "3-year overall survival rate", "setting": "[2]; cats with CKD, serum creatinine 1.6 to 2.8 mg/dL (stage 2)", "result": 52.2, "unit": "%"}, {"measurement": "3-year overall survival rate", "setting": "[2]; cats with CKD, serum creatinine 2.9 to 5.0 mg/dL (stage 3)", "result": 33.5, "unit": "%"}, {"measurement": "2-year overall survival rate", "setting": "[2]; cats with CKD, serum creatinine higher than 5.0 mg/dL (stage 4), BPS 20.0 to 49.1 μg/kg body weight/day, twice daily", "result": 25.9, "unit": "%"}, {"measurement": "3-year overall survival rate of BPS therapy group relative to No BPS therapy group", "setting": "[2]; stage 2", "result": 0.72, "unit": "times"}, {"measurement": "average survival period of BPS therapy group relative to No BPS therapy group", "setting": "[2]; stage 2", "result": 0.90, "unit": "times"}, {"measurement": "average survival period", "setting": "[2]; stage 2", "result": 31.5, "unit": "months"}, {"measurement": "effect on overall survival rate or observed survival rate", "setting": "[2]; [7]", "result": "no effects of BPS administration to improve the overall survival rate or the observed survival rate were observed"}, {"measurement": "average survival period of BPS therapy group relative to No BPS therapy group", "setting": "[2]; stage 3", "result": 1.54, "unit": "times"}, {"measurement": "3-year overall survival rate of BPS therapy group relative to No BPS therapy group", "setting": "[2]; stage 3 (Example 4)", "result": 1.85, "unit": "times"}, {"measurement": "3-year overall survival rate", "setting": "[2]; stage 3 (serum creatinine 2.9 to 5.0 mg/dL) and body weight of less than 4.2 kg", "result": 28.0, "unit": "%"}, {"measurement": "average survival period", "setting": "[2]; stage 3", "result": 25.3, "unit": "months"}, {"measurement": "median survival period", "setting": "[2]; stage 3", "result": 23.4, "unit": "months"}, {"measurement": "average survival period of BPS therapy group relative to No BPS therapy group", "setting": "[2]; [9]", "result": 1.54, "unit": "times"}, {"measurement": "3-year overall survival rate of BPS therapy group relative to No BPS therapy group", "setting": "[2]; stage 3 and body weight of less than 4.2 kg (Example 6)", "result": 2.77, "unit": "times"}, {"measurement": "effect on overall survival rate or observed survival rate", "setting": "[2]; stage 3 and body weight of less than 4.2 kg before initiation of administration", "result": "effects of BPS administration to improve the overall survival rate or the observed survival rate were observed"}, {"measurement": "average survival period", "setting": "[2]; [9]", "result": 22.4, "unit": "months"}, {"measurement": "median survival period", "setting": "[2]; [9]", "result": 19.8, "unit": "months"}, {"measurement": "effect on overall survival rate or observed survival rate", "setting": "[2]; stage 3 before initiation of administration", "result": "effects of BPS administration to improve the overall survival rate or the observed survival rate were observed"}, {"measurement": "2-year overall survival rate of BPS therapy group relative to No BPS therapy group", "setting": "[2]; stage 4", "result": 4.80, "unit": "times"}, {"measurement": "average survival period of BPS therapy group relative to No BPS therapy group", "setting": "[2]; stage 4", "result": 2.43, "unit": "times"}, {"measurement": "average survival period", "setting": "[2]; stage 4", "result": 14.1, "unit": "months"}, {"measurement": "median survival period", "setting": "[2]; stage 4", "result": 10.2, "unit": "months"}, {"measurement": "effect on overall survival rate or observed survival rate", "setting": "[2]; stage 4 before initiation of administration", "result": "effects of BPS administration to improve the overall survival rate or the observed survival rate were observed"}, {"measurement": "adverse side effects", "setting": "[3]; [10]", "result": "without adverse side effects"}, {"measurement": "kidney function marker values", "setting": "[3]; [10]", "result": "inhibit elevation in kidney function marker values such as serum creatinine and BUN"}, {"measurement": "tolerability and safety", "setting": "[3]; 55 μg twice daily for 6 months", "result": "well-tolerated and safe"}, {"measurement": "serum creatinine", "setting": "[3]; 55 μg twice daily for 6 months, vs placebo", "result": "inhibited serum creatinine elevation observed in the placebo group"}, {"measurement": "effect of improving the survival rate vs renin-angiotensin system inhibitor group", "setting": "[4]; [11]", "result": "higher than those in the renin-angiotensin system inhibitor group"}, {"measurement": "effect of lowering the risk of 10% body weight loss vs renin-angiotensin system inhibitor group", "setting": "[4]; [11]", "result": "higher than those in the renin-angiotensin system inhibitor group"}, {"measurement": "effect of improving the survival rate vs renin-angiotensin system inhibitor group", "setting": "[4]; [12]", "result": "no effects of improving the survival rate were observed"}, {"measurement": "effect of lowering the risk of 10% body weight loss vs renin-angiotensin system inhibitor group", "setting": "[4]; [12]", "result": "effects of lowering the risk of 10% body weight loss were observed"}, {"measurement": "clinical symptoms and kidney function", "setting": "[5]", "result": "stabilized clinical symptoms and maintained kidney function"}, {"measurement": "pharmacological activity on renal microvascular network", "setting": "[6]", "result": "improving microvascular network failure of kidney tissue"}]}]}
